Measurements published in patent publication US6103888A, “Mammalian cationic proteins having lipopolysaccharide binding and anti-coagulant activity” (priority 1999, dated 2000).

Assays:
[1] = test system: Salmonella minnesota ReLPS sensitized sheep erythrocytes; assay: LPS hemagglutination assay (MAC); assay type: binding
Protocol: For hemagglutination assays, erythrocytes were sensitized with LPS as follows. One ml of 1% erythrocyte suspension (human 0 type, C3H/HeN mouse or sheep) was mixed with 0.2 ml of LPS solution and incubated at 37° C. for 30 min, followed by washing with phosphate buffered saline (PBS), and then the concentration of suspension was adjusted to 1.0%. In the case of S-LPS, the solution was heated at 100° C. for 1 hour before sensitization of erythrocytes. […] Activity of CAP was expressed as a minimum agglutinating concentration (MAC) of CAP. According to the method of Kirikae et al. (1986) Microbiol. Immunol. 30:269-274, 50 μl of 2-fold serial dilution of Re-LPS was added to 50 μl of 1.0% rabbit erythrocyte suspension, and incubated at 37° C. for 3 hour. Minimum agglutinating concentration of Re-LPS was expressed as 1 HA unit.

[2] = test system: thioglycollate-stimulated murine peritoneal macrophages; assay: LPS-induced tissue factor generation by macrophages (clotting assay); assay type: cell-based; settings: peptides 1 μg/ml incubated with S. minnesota smooth LPS 5 minutes; 6 hr
Protocol: Tissue factor assay. Salmonella minnesota smooth LPS was incubated with each peptide (1 μg/ml) for 5 min., then the mixture was added to peritoneal murine macrophages obtained 4 days after thioglycollate stimulation. Cells were cultured for 6 hours prior to assay of tissue factor by clotting assay.
Various concentrations of Salmonella minnesota smooth LPS were incubated with each peptide (197 (RNIP), 36-1, 32-1, and 50-2) at 37° C. for 5 minutes prior to mixing with thioglycollate-stimulated murine peritoneal macrophages. Production of tissue factor after 6 hr. was measured by clotting assay. […] In the absence of LPS no tissue factor is synthesized by these cells.

[3] = test system: Salmonella minnesota Re; assay: Antibacterial CFU assay
[4] = test system: Salmonella typhimurium; assay: Antibacterial CFU assay; settings: for anti-bacterial activity (CFU), in words: Salmonella typhimurium, smooth strain; for effect on CFU of S. typhimurium: high concentrations alone and in various combinations
[5] = test system: Human plasma; assay: Prothrombin time (PT); assay type: biochemical
Protocol: Prothrombin time (PT). Human plasma (100 μl) was incubated with 100 μl of each peptide at 37° C. for 3 min., then 100 μl of tissue factor (250 μg/ml) CaCl2 was added and clotting time was measured.

[6] = target: prothrombin (factor II) (Homo sapiens, UniProt P00734); assay: Prothrombin activation by Echis Carinatus venom (ECV); assay type: biochemical
Protocol: Prothrombin activation by Echis Carinatus venom (ECV). A reaction mixture of prothrombin (factor II) (0.1 unit/ml, 200 μl), ECV (1 unit/ml, 200 μl), various concentration of peptide (70 μl), 50 μl of 25 mM-CaCl2 and 180 μl of Tris buffer was incubated at 37° C. for 10 min. To 300 μl of the reaction mixture, 60 μl of 4 mM-thrombin substrate and 240 μl of buffer was added and further incubated for 15 min.

[7] = test system: RAW 264.7 cells; assay: LPS- or IFNγ-induced reactive nitrogen intermediate (RNI) production, Griess nitrite assay; assay type: cell-based, murine; settings: macrophages / RAW 264.7 cells
Protocol: From the sequence of the CAP18 cDNA, it was apparent that the putative N-terminal peptide of CAP18 was in fact an internal fragment of the CAP18 protein. We therefore tried to reconfirm the original protein sequence. Neutrophil-derived heparin bound cationic proteins were prepared as described above and applied to a C18 reverse phase HPLC (FIG. 1). We sequenced the major peaks. Peaks at fractions 14.5 and 15.2 correspond to defensins MCP1 and MCP2 (Territo et al. (1989) J. Clin. Invest. 84:2017-2019), respectively. Fraction 25.8 is macrophage related protein 14 (MRP14) (Odink et al. (1987) Nature 330:80-82). The fraction at 20.3 minutes corresponds to a fragment of CAP18 of approximately 4-5 kD. […] The murine macrophage cell line RAW 264.7 (obtained from ATCC) and thioglycollate-elicited murine peritoneal exudate cells are used to produce RNI. Cells are cultured at 1×10^6 /ml. in RPMI-1640 +2.5% FCS in 24 well plates in the presence or absence of different concentrations of LPS or murine rlFNγ. After 24 hr. incubation at 37° C., the cell free supernatant is collected and tested for the presence of RNI. Accumulation of nitrite in the medium is measured by a calorimetric assay based on the Griess reaction (Green et al. (1982) Anal. Biochem. 126:11) using sodium nitrite as standards. Sample (50 μl) is mixed with 50 μl of Griess reagent (1% sulfanilamide, 0.1% naphthalene diamine dihydrochloride, 2.5% H3 PO4) and after 10 min. at room temperature absorbance is read at 570 nm.

[8] = test system: tissue factor generation; assay: Effect of CAP-37 on LPS-induced tissue factor generation; assay type: cell-based; settings: for Tissue factor units / Tissue factor units, value in parentheses (ratio to control): CAP-37 15 HA
Protocol: Table 6 presents a comparison of the effect of RNIP, CAP18, and defensins HP-1 and HP-2 (Territo et al. (1989) J. Clin. Invest. 84:2017-2019) on LPS-induced tissue factor generation. Tissue factor assays were performed as follows. Mouse peritoneal cells were elicted with an intraperitoneal injection of thioglycolate medium and harvested 5-days later by irrigation with pyrogen-free saline. The cells were washed with RPMI 1640 medium, counted and resuspended at a concentration of 1.5-2.0×10^6 /ml in serum-free RPMI medium containing glutamine (0.29 mg/ml), penicillin (50 units/ml) and streptomycin ([…]). Adherent cells were prepared by incubating 10 ml of a cell suspension (in RPMI 1640 media in sterile culture bottle (Nunclon, 50 ml, Inter Med) for 60 min. at 37° C. in a 5% CO2 atmosphere. The plastic adherent cells were recovered by scraping of the bottle with a sterile rubber policeman. The adherent cells were then washed twice with RPMI media, resuspended in serum-free medium (1×10^6 /ml) in culture tube (Nunc cryotube, Inter Med), and stimulated with graded doses of LPS for 6 hr. at 37° C. in a 5% CO2. The cell suspension was centrifuged and cell pellet was frozen at -80° C. until clotting assays were run.
Veronal buffered saline (VBS) was added to the cell pellet, lysed by 3 cycles of freeze/thaw and sonicated for 10 sec with a hand-held sonicator microbe (Handy Sonic, model UR-20P, Tomy Seiko LTD, Tokyo). Tissue factor activity was tested in modified unactivated partial thromboplastin time (7). One tenth ml of cell lysate (1×10^6 /ml) was preincubated with mouse plasma at 37° C. for 3 min. Then 0.1 ml of 25 mM-CaCl2 which contains phospholipid was added to the mixture and clotting time was measured using a fibrometer (Bio Quest Division, Becton Dickinson, Cokeysville, USA). A standard curve obtained from serial two-fold dilutions of rabbit brain thromboplastic (Simplastin, Ono Pharmaceutical Co.) was used to transpose tissue factor activity into arbitrary tissue factor units (1 μg/ml) suspension of rabbit brain was assigned a value of 1,000 units).
.dagger.LPS was incubated with CAP37 at 37° C. for 2 hours, and th
mixture was added to cells, then cultured for 6 hours.

[9] = target: prothrombin (factor II)

21-1: synthetic rabbit RNIP fragment, amino acids 135-151 of SEQ ID NO:4 (GLRKRLRKFRNKIKEKL) [Peptide 21-1]
Hemagglutination [MAC], minimum agglutinating concentration [1]: > 125 µg/mL

32-1: synthetic rabbit RNIP fragment, amino acids 135-143 of SEQ ID NO:4 (GLRKRLRKF) [Peptide 32-1]
inhibition of LPS induced tissue factor (in words) [2]: fail to inhibit | anti-bacterial activity (CFU), in words [3]: not active | Hemagglutination [MAC], minimum agglutinating concentration [1]: > 125 µg/mL | effect of pretreatment on bacterial killing by peptide 197 ([4]; S. typhimurium pretreated with peptide 32-1, then peptide 197): no inhibition or augmentation | anti-bacterial activity (CFU), in words [4]: not active | effect on CFU of S. typhimurium [4]: No effect | inhibition of the prothrombin time (PT), in words [5]: inactive | inhibition of Echis carinatus venom activation of purified factor II to IIa (in words) [6]: inactive

34-1: synthetic rabbit RNIP fragment, amino acids 140-166 of SEQ ID NO:4 (LRKFRNKIKEKLKKIGQKIQGLLPKLA) [Peptide 34-1]
Hemagglutination [MAC], minimum agglutinating concentration [1]: > 125 µg/mL

50-1: synthetic rabbit RNIP fragment, amino acids 147-171 of SEQ ID NO:4 (IKEKLKKIGQKIQGLLPKLAPRTDY) [Peptide 50-1]
Hemagglutination [MAC], minimum agglutinating concentration [1]: > 125 µg/mL

50-2: synthetic rabbit RNIP fragment, amino acids 147-171 of SEQ ID NO:4 (IKEKLKKIGQKIQGLLPKLAPRTDY) [Peptide 50-2]
inhibition of LPS induced tissue factor (in words) [2]: fail to inhibit | anti-bacterial activity (CFU), in words [3]: not active | Hemagglutination [MAC], minimum agglutinating concentration [1]: > 125 µg/mL | anti-bacterial activity (CFU), in words [4]: not active | effect on CFU of S. typhimurium [4]: No effect | inhibition of the prothrombin time (PT), in words [5]: inactive | inhibition of Echis carinatus venom activation of purified factor II to IIa (in words) [6]: inactive

52-1: synthetic rabbit RNIP fragment, amino acids 143-169 of SEQ ID NO:4 (FRNKIKEKLKKIGQKIQGLLPKLAPRT) [Peptide 52-1]
Hemagglutination [MAC], minimum agglutinating concentration [1]: > 125 µg/mL

52-2: synthetic rabbit RNIP fragment, amino acids 143-170 of SEQ ID NO:4 (FRNKIKEKLKKIGQKIQGLLPKLAPRTD) [Peptide 52-2]
Hemagglutination [MAC], minimum agglutinating concentration [1]: > 125 µg/mL

52-3: synthetic rabbit RNIP fragment, printed as amino acids 132-171 of SEQ ID NO:4 (EPTGLRKRLRKFRNKIKEKLKKIGQKIQGLLPKLAPRTDY) [Peptide 52-3]
Hemagglutination [MAC], minimum agglutinating concentration [1]: > 125 µg/mL

54-1: synthetic rabbit RNIP fragment, amino acids 139-170 of SEQ ID NO:4 (RLRKFRNKIKEKLKKIGQKIQGLLPKLAPRTD) [Peptide 54-1]
Hemagglutination [MAC], minimum agglutinating concentration [1]: > 125 µg/mL

54-2: synthetic rabbit RNIP fragment, amino acids 139-171 of SEQ ID NO:4 (RLRKFRNKIKEKLKKIGQKIQGLLPKLAPRTDY) [Peptide 54-2]
Hemagglutination [MAC], minimum agglutinating concentration [1]: > 125 µg/mL

187: synthetic rabbit RNIP fragment, amino acids 151-171 of SEQ ID NO:4 (LKKIGQKIQGLLPKLAPRTDY) [Peptide 187]
Hemagglutination [MAC], minimum agglutinating concentration [1]: > 125 µg/mL | inhibition of LPS-induced RNI production (in words) [7]: inactive

polymyxin B [reference compound]
inhibition of LPS-induced RNI production (in words) [7]: inhibition

B1: CAP-37: another cationic peptide, azurocidin (CAP37) (Morgan et al.) (protein, UniProt P20160 27-248, looked up)
Azurocidin: IVGGRKARPRQFPFLASIQNQGRHFCGGALIHARFVMTAASCFQSQNPGVSTVVLGAYDLRRRERQSRQTFSISSMSENGYDPQQNLNDLMLLQLDREANLTSSVTILPLPLQNATVEAGTRCQVAGWGSQRSGGRLSRFPRFVNVTVTPEDQCRPNNVCTGVLTRRGGICNGDGGTPLVCEGLAHGVASFSLGPCGRGPDFFTRVALFRDWIDGVLNNPGP
inhibition of tissue factor generation (in words) [8]: unable to inhibit tissue factor generation | Tissue factor units ([8]; LPS 0.1 μg/ml): 383 ± 307 units /1 × 10^5 cells | Tissue factor units, value in parentheses (ratio to control) ([8]; LPS 0.1 μg/ml): 2.3 | Tissue factor units ([8]; LPS 1.0 μg/ml): 648 ± 343 units /1 × 10^5 cells | Tissue factor units, value in parentheses (ratio to control) ([8]; LPS 1.0 μg/ml): 3.9 | Tissue factor units ([8]; no LPS): 183 ± 67 units /1 × 10^5 cells | Tissue factor units, value in parentheses (ratio to control) ([8]; no LPS): 1.1

B2: synthetic rabbit RNIP peptide 36-1 (peptide)
peptide: GLRKRLRKFRNKIKEKLKKIGQKIQGLLPKLA
IC50, factor II activation by Xa [9]: < 30 nM

B3: synthetic rabbit RNIP peptide 197 (peptide)
peptide: GLRKRLRKFRNKIKEKLKKIGQKIQGLLPKLAPRTDY
IC50, factor II activation by Xa [9]: 50 nM
